Reference: patent US8173638B2 (Boehringer Ingelheim International GmbH, priority 2006, dated 2012)
Like-named read-outs stand apart in the source and are kept apart here.

Target: T1, human CB2R (Homo sapiens, UniProt P34972)
T1 construct: host or cells: CHO cells
Assay: CB2R mediated modulation of cAMP synthesis
Assay type: cell-based
Details: for agonistic activity: found through the use of the described assays (CB2 agonists), qualitative statement; for Emax: 0.5 h, read-out: Agonist Efficacy (%)
Protocol: B. CB2R Mediated Modulation of cAMP Synthesis:
CHO cells expressing human CB2R (Euroscreen) were plated at a density of 5000 cells per well in 384 well plates and incubated overnight at 37° C. After removing the media, the cells were treated with test compounds diluted in stimulation buffer containing 1 mM IBMX, 0.25% BSA and 10 uM Forskolin. The assay was incubated for 30 minutes at 37° C. Cells were lysed and the cAMP concentration was measured using DiscoverX-XS cAMP kit, following the manufacturer's protocol. In this setting, agonists will decrease forskolin induced production of cAMP while inverse agonists will further increase forskolin induced production of cAMP. EC50 of agonists were calculated as follows. The maximal amount of cAMP produced by forskolin compared to the level of cAMP inhibited by 1 uM CP55940 is defined as 100%. […] Data was analyzed using a four-parameter logistic model. (Model 205 of XLfit 4.0).

[1] = CHO cells expressing human CB2R, cAMP inhibited by 1 uM CP55940 defined as 100%

T1 sequence (P34972 whole entry): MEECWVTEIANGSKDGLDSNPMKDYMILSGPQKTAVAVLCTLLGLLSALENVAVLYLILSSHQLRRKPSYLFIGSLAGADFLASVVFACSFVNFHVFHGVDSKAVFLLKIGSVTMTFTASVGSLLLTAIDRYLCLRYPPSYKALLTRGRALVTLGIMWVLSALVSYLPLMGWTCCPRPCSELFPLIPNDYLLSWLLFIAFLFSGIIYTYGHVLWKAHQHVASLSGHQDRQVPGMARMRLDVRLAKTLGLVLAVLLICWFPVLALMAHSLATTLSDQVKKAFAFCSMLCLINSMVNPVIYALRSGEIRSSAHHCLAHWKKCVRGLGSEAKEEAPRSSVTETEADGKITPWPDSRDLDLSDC

SMILES | agonistic activity | further results
O=C(Nc1nc(-c2ccccc2)cs1)N1CCCN(C(=O)N2CCOCC2)CC1 [4-(Morpholine-4-carbonyl)-[1,4]diazepane-1-carboxylic acid (4-phenyl-thiazol-2-yl)-amide] | agonistic activity | 
O=C(COc1ccccc1)N1CCCN(C(=O)Nc2ccc3ccccc3c2)CC1 [4-(2-Phenoxy-acetyl)-[1,4]diazepane-1-carboxylic acid naphthalen-2-ylamide] | agonistic activity | 
CCc1ccc(NC(=O)N2CCCN(C(=O)C3CCCCC3)CC2)cc1 [4-Cyclohexanecarbonyl-[1,4]diazepane-1-carboxylic acid (4-ethyl-phenyl)-amide] | agonistic activity | 
O=C(CC1CCCC1)N1CCCN(C(=O)Nc2cc(Cl)cc(Cl)c2)CC1 [4-(2-Cyclopentyl-acetyl)-[1,4]diazepane-1-carboxylic acid (3,5-dichloro-phenyl)-amide] | agonistic activity | 
Cc1csc(NC(=O)N2CCCN(C(=O)C3CCOCC3)CC2)n1 [4-(Tetrahydro-pyran-4-carbonyl)-[1,4]diazepane-1-carboxylic acid (4-methyl-thiazol-2-yl)-amide] | agonistic activity | 
CCC(C)c1cc(NC(=O)N2CCCN(C(=O)N3CCOCC3)CC2)on1 (stereo not drawn) [4-(Morpholine-4-carbonyl)-[1,4]diazepane-1-carboxylic acid (3-sec-butyl-isoxazol-5-yl)-amide] | agonistic activity | 
CCCC(=O)c1ccc(NC(=O)N2CCCN(C(=O)CC3CCCC3)CC2)cc1 [4-(2-Cyclopentyl-acetyl)-[1,4]diazepane-1-carboxylic acid (4-butyryl-phenyl)-amide] | agonistic activity | 
O=C(Nc1ccc(SC(F)(F)F)cc1)N1CCCN(C(=O)C2CCOCC2)CC1 [4-(Tetrahydro-pyran-4-carbonyl)-[1,4]diazepane-1-carboxylic acid (4-trifluoromethylsulfanyl-phenyl)-amide] | agonistic activity | 
CCCCCc1ccc(NC(=O)N2CCCN(C(=O)CC3CCCC3)CC2)cc1 [Compound 49, 4-(2-Cyclopentyl-acetyl)-[1,4]diazepane-1-carboxylic acid (4-n-pentyl-phenyl)-amide] |  | Emax [1]: 73%; EC50 (read-out: hCB2 cAMP EC50): 48 nM
Cc1ccc(C(=O)N2CCCN(C(=O)Nc3ccc(C(C)(C)C)cc3)CC2)cc1 [Compound 122, 4-(4-Methyl-benzoyl)-[1,4]diazepane-1-carboxylic acid (4-tert-butyl-phenyl)-amide] |  | Emax [1]: 101%; EC50 (read-out: hCB2 cAMP EC50): 100 nM
Cc1ccc(C(=O)N2CCCN(C(=O)Nc3ccc(C(C)(C)C)cc3)CC2)cc1 [4-(4-Methyl-benzoyl)-[1,4]diazepane-1-carboxylic acid (4-tert-butyl-phenyl)-amide] | agonistic activity | 
CC(C)(C)c1cc(NC(=O)N2CCCN(C(=O)NC3CCCCC3)CC2)no1 [Compound 212, [1,4]Diazepane-1,4-dicarboxylic acid 1-[(5-tert-butyl-isoxazol-3-yl)-amide] 4-cyclohexylamide] |  | EC50: 70 nM; Emax (CHO): 102%
CC(C)(C)c1cc(NC(=O)N2CCCN(C(=O)C3CCCCC3)CC2)no1 [Compound 153, 4-Cyclohexanecarbonyl-[1,4]diazepane-1-carboxylic acid (5-tert-butyl-isoxazol-3-yl)-amide] |  | Emax [1]: 104%; EC50 (read-out: hCB2 cAMP EC50): 3.7 nM
CC(C)c1ccc(NC(=O)N2CCCN(C(=O)c3ccncc3)CC2)cc1 [4-(Pyridine-4-carbonyl)-[1,4]diazepane-1-carboxylic acid (4-isopropyl-phenyl)-amide] | agonistic activity | 
O=C(Nc1nc(-c2ccccc2)cs1)N1CCCN(C(=O)C2CCC(O)CC2)CC1 (stereo not drawn) [Compound 174, 4-(4-Hydroxy-cyclohexanecarbonyl)-[1,4]diazepane-1-carboxylic acid (4-phenyl-thiazol-2-yl)-amide] |  | EC50: 43 nM; Emax (CHO): 102%
CC(C)(C)c1cc(NC(=O)N2CCCN(C(=O)C3CCCCCC3)CC2)no1 [4-Cycloheptanecarbonyl-[1,4]diazepane-1-carboxylic acid (5-tert-butyl-isoxazol-3-yl)-amide] | agonistic activity | 
CC(C)(C)c1cc(NC(=O)N2CCCN(C(=O)CN3CCSCC3)CC2)no1 [Compound 227, 4-(2-Thiomorpholin-4-yl-acetyl)-[1,4]diazepane-1-carboxylic acid (5-tert-butyl-isoxazol-3-yl)-amide] |  | Emax [1]: 102%; EC50 (read-out: hCB2 cAMP EC50): 9.6 nM
CC(C)(C)c1cc(NC(=O)N2CCCN(C(=O)C3CCC(NS(C)(=O)=O)CC3)CC2)no1 (stereo not drawn) [4-(4-Methanesulfonylamino-cyclohexanecarbonyl)-[1,4]diazepane-1-carboxylic acid (5-tert-butyl-isoxazol-3-yl)-amide] | agonistic activity | 
CC(C)(C)c1cc(NC(=O)N2CCCN(C(=O)N3CCCCC3)CC2)no1 [Compound 198, 4-(Piperidine-1-carbonyl)-[1,4]diazepane-1-carboxylic acid (5-tert-butyl-isoxazol-3-yl)-amide] |  | EC50: 47 nM; Emax (CHO): 99%
CC(C)c1ccc(NC(=O)N2CCCN(C(=O)CC3CCCCC3)CC2)cc1 [4-(2-Cyclohexyl-acetyl)-[1,4]diazepane-1-carboxylic acid (4-isopropyl-phenyl)-amide] | agonistic activity | 
CS(=O)(=O)c1ccc(NC(=O)N2CCCN(C(=O)CC3CCOCC3)CC2)cc1 [4-(2-Tetrahydro-pyran-4-yl-acetyl)-[1,4]diazepane-1-carboxylic acid (4-methanesulfonyl-phenyl)-amide] | agonistic activity | 
CC(C)c1ccc(NC(=O)N2CCCN(C(=O)C3CCOCC3)CC2)cc1 [4-(Tetrahydro-pyran-4-carbonyl)-[1,4]diazepane-1-carboxylic acid (4-isopropyl-phenyl)-amide] | agonistic activity | 
CCCCc1ccc(NC(=O)N2CCCN(C(=O)C3CCOCC3)CC2)cc1 [4-(Tetrahydro-pyran-4-carbonyl)-[1,4]diazepane-1-carboxylic acid (4-butyl-phenyl)-amide] | agonistic activity | 
O=C(Nc1ccc2ccccc2c1)N1CCCN(C(=O)c2ccc(Cl)cc2Cl)CC1 [Compound 99, 4-(2,4-Dichloro-benzoyl)-[1,4]diazepane-1-carboxylic acid naphthalen-2-ylamide] |  | Emax [1]: 102%; EC50 (read-out: hCB2 cAMP EC50): 100 nM
CC(C)(C)c1ccc(NC(=O)N2CCCN(C(=O)CCC3CCCCC3)CC2)cc1 [4-(3-Cyclohexyl-propionyl)-[1,4]diazepane-1-carboxylic acid (4-tert-butyl-phenyl)-amide] | agonistic activity | 
CCC(C)c1ccc(NC(=O)N2CCCN(C(=O)CC3CCOCC3)CC2)cc1 (stereo not drawn) [4-(2-Tetrahydro-pyran-4-yl-acetyl)-[1,4]diazepane-1-carboxylic acid (4-sec-butyl-phenyl)-amide] | agonistic activity | 
Cc1ccc(C(=O)N2CCCN(C(=O)Nc3ccc4ccccc4c3)CC2)cc1 [4-(4-Methyl-benzoyl)-[1,4]diazepane-1-carboxylic acid naphthalen-2-ylamide] | agonistic activity | 
CSc1ccc(NC(=O)N2CCCN(C(=O)CC3CCOCC3)CC2)cc1 [4-(2-Tetrahydro-pyran-4-yl-acetyl)-[1,4]diazepane-1-carboxylic acid (4-methylsulfanyl-phenyl)-amide] | agonistic activity | 
